The target of one assay is BLT1-T4L. The experiment in a line: Competition assay of ligands against ^3H-LTB4, BLT1-T4L expressed in P. pastoris. It counts as binding, guinea pig. Conditions: for logIC50: log value (negative). An excerpt: For the ligand binding assay of BLT1-T4Ls, the T4L cDNA was integrated into the cDNA, encoding the newly generated thermostable BLT1 mutant with the additional mutation V212A, by the consensus method (residues 1-14 deleted and H83G/K88G/V212A/S309A mutations), with the α-factor PrePro signal sequence and the FLAG tag at the N-terminal, and the PreScission site and the His6 tag at the C-terminal of BLT1 (Hori T. et al., 2010, supra) in the pPIC3.5K vector, using the In-Fusion enzyme (FIG. 7A). The expression vectors were introduced into the yeast Pichia pastoris using an EasyComp kit (Thermo Fisher Scientific). BLT1-T4Ls were expressed in 10 ml cultures, and the membrane fraction was prepared as described previously (Hori T. et al., 2010, supra; Hon T. et al., 2015, supra).
(§1) For the evaluation of the ligand-binding activity of the BLT1 mutants and BLT1-T4Ls, a ^3H-LTB4 binding assay was performed using the BLT1-expressing membrane fractions of COS-7, HEK293, or P. pastoris cells, as described previously (Hori T. et al., 2010, supra; Hori T. et al., 2015, supra). For the evaluation of the thermostability, the membrane fraction was heat-treated before the ^3H-LTB4 binding assay.

The next assay has as its target T1, BLT1 D66^2.50A mutant (Cavia porcellus, UniProt H0VYV8, D66A).
T1 construct: expressed in transfected cells; host or cells: HEK293 (membrane fraction)
T1 sequence (H0VYV8 1-348 D66A): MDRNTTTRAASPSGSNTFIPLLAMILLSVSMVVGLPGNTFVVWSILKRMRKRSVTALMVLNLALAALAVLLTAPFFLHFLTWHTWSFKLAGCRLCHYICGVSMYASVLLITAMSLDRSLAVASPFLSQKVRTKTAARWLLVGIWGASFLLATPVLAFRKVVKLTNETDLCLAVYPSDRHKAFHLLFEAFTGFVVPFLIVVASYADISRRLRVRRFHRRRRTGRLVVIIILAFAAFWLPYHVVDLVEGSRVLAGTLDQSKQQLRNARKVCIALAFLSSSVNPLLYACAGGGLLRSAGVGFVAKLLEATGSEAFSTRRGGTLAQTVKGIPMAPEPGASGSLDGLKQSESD
The experiment in a line: Competition binding of BIIL260 to 0.5 nM ^3H-LTB4, BLT1 mutant in HEK293 membrane fraction. More on the design: species or system guinea pig.
Description: (§2) (A) Structure of the BIIL260-binding site. BIIL260 and the BLT1 side chains within 4 Å from BIIL260 are represented by stick models, and transmembrane helices are depicted by thin ribbons. Sulfur atoms are colored gold. (B) Schematic representation of the BLT1-BIIL260 interaction. Intermolecular forces such as the salt bridge, hydrogen bonding, π-to-edge, CH-to-π, and hydrophobic interactions are indicated in red, blue, orange, violet, and green, respectively. The three non-identical residues in human BLT1 and BLT2, a cognate receptor of BLT1, are highlighted in green shaded boxes, and the corresponding residues of human BLT1 and BLT2 (hBLT1 and hBLT2, respectively) are also presented. (C) Competition binding assays of BIIL260 to 0.5 nM ^3H-LTB4, using the membrane fractions of HEK293 cells expressing the mutant and wild-type BLT1s. The mutations were introduced at the residues involved in the specific BIIL260 binding. Each point (±s.e.m.) indicates the mean value of two independent experiments, each with triplicate reactions. NS is non-specific binding measured with 0.5 μM LTB4.
(§3) For the evaluation of the thermostabilities of guinea pig BLT1 mutants designed by the consensus method (FIG. 8A), point mutations were introduced using a QuikChange kit (Agilent) to the previously constructed thermostabilized BLT1 mutant cDNA (residues 1-14 deleted, H83G/K88G/S309A mutations, and an N-terminal FLAG-tag) in the pcDNA3 vector (Hori, T. et al., Protein Expr. Purif. 72 (2010) 66-74; Hori, T. et al., Biochem. Biophys. Rep. 4 (2015) 243-249). The expression vectors encoding the BLT1 mutants were transfected into COS-7 cells with Lipofectamine 2000. For the analysis of the BIIL260 binding residues of BLT1, point mutations were introduced, using the In-Fusion enzyme (Clontech), into the wild-type BLT1 cDNA with the N-terminal FLAG-tag in the pcDNA3 vector. The expression vectors were transfected into HEK293 cells, using polyethyleneimine. […] The BLT1 mutants were transiently expressed for three days at 37° C. The cells were washed with PBS, harvested with PBS-EDTA, disrupted with a sonicator, and centrifuged at 800×g for 5 min. The supernatant was further ultra-centrifuged at 100,000×g for 60 min, and the precipitate was collected.
as §1

The target in the next assay is T2, BLT1 L80^2.64A mutant (Cavia porcellus, UniProt H0VYV8, L80A).
T2 construct: expressed in transfected cells; host or cells: HEK293 (membrane fraction)
Described as above. More on the design: species or system guinea pig.
Description: as §2, §3, §1

The next assay concerns the target T3, BLT1 S106^3.39A mutant (Cavia porcellus, UniProt H0VYV8, S106A).
T3 construct: expressed in transfected cells; host or cells: HEK293 (membrane fraction)
Described as above. More on the design: species or system guinea pig.
Description: as §2, §3, §1

Another assay deals with T4, BLT1 S276^7.45A mutant (Cavia porcellus, UniProt H0VYV8, S276A).
T4 construct: expressed in transfected cells; host or cells: HEK293 (membrane fraction)
Described as above. Details: species or system guinea pig.
Description: as §2, §3, §1

The target in another assay is T5, BLT1 V69^2.53A mutant (Cavia porcellus, UniProt H0VYV8, V69A).
T5 construct: expressed in transfected cells; host or cells: HEK293 (membrane fraction)
T5 sequence (H0VYV8 1-348 V69A): T1 sequence (H0VYV8 1-348 D66A) with A66D, V69A
The assay is described as above. Details: species or system guinea pig.
Description: as §2, §3, §1

For a further assay, the target named is T6, BLT1 W236^6.48A mutant (Cavia porcellus, UniProt H0VYV8, W236A).
T6 construct: expressed in transfected cells; host or cells: HEK293 (membrane fraction)
The description is as above. Details: species or system guinea pig.
Description: as §2, §3, §1

For assay [1], the target named is T7, wild-type BLT1 (Cavia porcellus, UniProt H0VYV8).
T7 construct: expressed in transfected cells; host or cells: HEK293 (membrane fraction)
Put plainly: Competition binding of BIIL260 to 0.5 nM ^3H-LTB4, wild-type BLT1 in HEK293 membrane fraction. More on the design: species or system guinea pig. Conditions: WT.
Description: as §2, with “LTB4. […]” for “LTB4.”

In assay [2] the target is T7, wild-type BLT1. The experiment in a line: Competition binding assay of benzamidine and NaCl to 0.5 nM ^3H-LTB4 (allosteric modulation titration analysis). Conditions: for logα / α: cooperative factor between ^3H-LTB4 and the modulator. More on the design: species or system guinea pig. From the text:
Each point (±s.e.m.) indicates the mean value of three independent experiments, each with triplicate reactions. […] Each point (±s.e.m.) indicates the mean value of three independent experiments, each with triplicate reactions. […] Each point (±s.e.m.) indicates the mean value of triplicate reactions. For the evaluation of the thermostabilities of guinea pig BLT1 mutants designed by the consensus method (FIG. 8A), point mutations were introduced using a QuikChange kit (Agilent) to the previously constructed thermostabilized BLT1 […] deleted, […] mutations, and an N-terminal FLAG-tag) in the pcDNA3 vector (Hori, T. et al., Protein Expr. Purif. 72 (2010) 66-74; Hori, T. et al., Biochem. Biophys. Rep. 4 (2015) 243-249). The expression vectors encoding the BLT1 mutants were transfected into COS-7 cells with Lipofectamine 2000. For the analysis of the BIIL260 binding residues of BLT1, point mutations were introduced, using the In-Fusion enzyme (Clontech), into the wild-type BLT1 cDNA with the N-terminal FLAG-tag in the pcDNA3 vector. The expression vectors were transfected into HEK293 cells, using polyethyleneimine. […] The BLT1 mutants were transiently expressed for three days at 37° C. The cells were washed with PBS, harvested with PBS-EDTA, disrupted with a sonicator, and centrifuged at 800×g for 5 min. The supernatant was further ultra-centrifuged at 100,000×g for 60 min, and the precipitate was collected. For the evaluation of the ligand-binding activity of the BLT1 mutants and BLT1-[…], a ^3H-LTB4 binding assay was performed using the BLT1-expressing membrane fractions of COS-7, HEK293, or P. pastoris cells, as described previously (Hori T. et al., 2010, supra; Hori T. et al., 2015, supra). For the evaluation of the thermostability, the membrane fraction was heat-treated before the ^3H-LTB4 binding assay. […] For all of the pharmacological analyses, nonlinear regression curve fitting was performed using Prism 5 (Graph Pad Software).

Assay [3] has as its target T8, BLT1 (Cavia porcellus, UniProt H0VYV8). The experiment in a line: TGFα shedding assay with benzamidine (G-protein activation by LTB4). It counts as cell-based. Details: expressed in transfected cells. Conditions: for logβ / β: LTB4-induced efficacy modulation by benzamidine. Here is the method:
Each point (±s.e.m.) indicates the mean value of three independent experiments, each with triplicate reactions. […] Each point (±s.e.m.) indicates the mean value of three independent experiments, each with triplicate reactions. […] Each point (±s.e.m.) indicates the mean value of triplicate reactions. […] To determine the parameters, three steps of fitting procedures were performed.

In assay [4] the target is T8, BLT1. The experiment in a line: Saturation binding assay of ^3H-LTB4 and BLT1 with various concentrations of benzamidine. More on the design: expressed in transfected cells; host or cells: HEK293 (membrane fraction); species or system guinea pig. Here is the method: Each point (±s.e.m.) indicates the mean value of three independent experiments, each with triplicate reactions. […] Each point (±s.e.m.) indicates the mean value of three independent experiments, each with triplicate reactions. […] Each point (±s.e.m.) indicates the mean value of triplicate reactions. For the evaluation of the ligand-binding activity of the BLT1 mutants and BLT1-[…], a ^3H-LTB4 binding assay was performed using the BLT1-expressing membrane fractions of COS-7, HEK293, or P. pastoris cells, as described previously (Hori T. et al., 2010, supra; Hori T. et al., 2015, supra). For the evaluation of the thermostability, the membrane fraction was heat-treated before the ^3H-LTB4 binding assay.

[5] abbreviates: saturation binding, global fitting.

Numbering of substitutions follows the chain as printed.

T8 sequence (H0VYV8 1-348): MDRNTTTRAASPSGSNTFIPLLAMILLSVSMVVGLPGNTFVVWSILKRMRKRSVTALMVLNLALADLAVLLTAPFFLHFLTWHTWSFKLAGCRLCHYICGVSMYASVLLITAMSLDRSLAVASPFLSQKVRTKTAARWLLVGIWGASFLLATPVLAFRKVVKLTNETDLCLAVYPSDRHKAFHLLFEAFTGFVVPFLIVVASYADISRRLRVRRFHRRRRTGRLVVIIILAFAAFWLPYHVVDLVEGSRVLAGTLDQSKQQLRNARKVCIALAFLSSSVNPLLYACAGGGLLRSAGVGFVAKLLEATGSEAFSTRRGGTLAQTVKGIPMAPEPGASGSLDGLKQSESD
T7 sequence (H0VYV8 1-348): as above
T4 sequence (H0VYV8 1-348 S276A): as the sequence (H0VYV8 1-348) above, with S276A counted along it
T3 sequence (H0VYV8 1-348 S106A): as the sequence (H0VYV8 1-348) above, with S106A counted along it
T2 sequence (H0VYV8 1-348 L80A): as the sequence (H0VYV8 1-348) above, with L80A counted along it
T6 sequence (H0VYV8 1-348 W236A): as the sequence (H0VYV8 1-348) above, with W236A counted along it

For `CCOC(=O)NC(=N)c1ccc(OCc2cccc(COc3ccc(C(C)(C)c4ccc(O)cc4)cc3)c2)cc1`, at BLT1-T4L, the Ki (in general, the dissociation constant of the complex between target and ligand, obtained from inhibition or displacement) was 148 nM; the logIC50 is given as −6.7.

In the case of `CC(C)(c1ccc(O)cc1)c1ccc(OCc2cccc(COc3ccc(C(=N)N)cc3)c2)cc1` [BIIL260], the affinity on BLT1-T4L, expressed as Ki, was 2.3 nM. Further, the logIC50 in the assay on BLT1-T4L is −8.5; on BLT1 L80^2.64A mutant (log value (negative)) it was −7.9; at BLT1 S106^3.39A mutant (log value (negative)) it was −7.9; at BLT1 S276^7.45A mutant (S276^7.45A, log value (negative)), −6.9; on BLT1 V69^2.53A mutant (log value (negative)), −7.5; on BLT1 W236^6.48A mutant (log value (negative)) it was −7.2. The molecule also returned a logIC50 on wild-type BLT1 [1] (log value (negative)) of −7.5. Also, the “logIC50 (IC50)” value at BLT1 D66^2.50A mutant (D66^2.50A) is reported as “No binding”. Further, the results for the BIIL260-binding ability result on BLT1 D66^2.50A mutant (D66^2.50A mutation) and on BLT1 S276^7.45A mutant (S276^7.45A mutation) were “abrogated” and “decreased”, respectively. Further, the half-maximal inhibitory concentration (IC50) (as a rule, the concentration that gives 50% inhibition) on BLT1 L80^2.64A mutant was determined as 12 nM; at BLT1 S106^3.39A mutant, 12 nM; at BLT1 S276^7.45A mutant (S276^7.45A) it was 124 nM; on BLT1 V69^2.53A mutant, 33 nM; on BLT1 W236^6.48A mutant, 62 nM; at wild-type BLT1 [1] it was 30 nM.

Take `N=C(N)c1ccccc1` [Benzamidine, benzamidine]: on wild-type BLT1 [2] (FIG. 3A), the “level of the LTB4-BLT1 binding” value was “decreased the level of the LTB4-BLT1 binding in a benzamidine concentration-dependent manner” and the “suppression of the BLT1-LTB4 binding compared with the sodium ion” value is “more potently than the sodium ion, by one order of magnitude”. Further, at wild-type BLT1 [2], the logα was −0.82 and the α entry is “(α = 0.15)”. At BLT1 [3] (FIGS. 3C and 3D), the “BLT1-LTB4-mediated Gq/il and G16 activation” value is given as “decreased”. Moreover, at BLT1 [3] (G16), the logα was −0.45, the α result was “(α = 0.36)”, the logβ is listed as −1.6 and the β result was “(β = 0.03)”. Also, on BLT1 [3] (Gq/i1), the logα came to 0.00, the α entry is reported as “(α = 1.00)”, the logβ is −1.9 and the β entry is given as “(β = 0.01)”. In addition, at BLT1 [3] (as a whole), the “cooperative factor of the LTB4-induced efficacy modulation (β)” value was below 1. Also, the “cooperative factor of the binding of LTB4 to BLT1 (α)” value at BLT1 [3] (as a whole (binding and shedding assays)) is on record as at most 1. Also, at BLT1 [4] (FIG. 3B), the “binding affinity of LTB4 toward BLT1” value is “lowered”. In addition, on BLT1 [4] (setting [5]), the logα is reported as −0.93 and the α result is “(α = 0.12)”.

Consider `[Cl-].[Na+]` [NaCl], for which, at wild-type BLT1 [2] (FIG. 3A), the “level of the LTB4-BLT1 binding” value was “decreased in a sodium ion concentration-dependent manner”. For the same molecule, on wild-type BLT1 [2], the logα is recorded as −1.5 and the α entry is on record as “(α = 0.035)”.

For the origin of these results see patent US12275687B2 (priority 2017, dated 2025).
